This assay concerns the target Casein kinase II subunit alpha (Rattus norvegicus, UniProt P19139). The assay can be described thus: CK2 Phosphorylation Assay. The note with it: pH 7.5; 37 °C. The method, then: Inhibitory effect of test compound was assessed in reaction buffer containing purified CK2, synthetic peptide substrate, and [gamma-33P]ATP. Assays were stopped by addition of 0.5 M orthophosphoric acid before spotting aliquots onto phosphocellulose filters. Filters were washed in 75 mM phosphoric acid (5-10 mL/each) four times then once in methanol and dried before counting. Inhibition constants were determined from Lineweaver-Burk double-reciprocal plots of data obtained in experiments run at fixed concentration of peptide substrate and at increasing concentrations of ATP either in the absence or in the presence of variable concentrations of inhibitor. Alternatively inhibition constants were also deduced from the IC50/Ki Cheng-Prusoff relationship.

Chain of Casein kinase II subunit alpha (P19139 whole entry): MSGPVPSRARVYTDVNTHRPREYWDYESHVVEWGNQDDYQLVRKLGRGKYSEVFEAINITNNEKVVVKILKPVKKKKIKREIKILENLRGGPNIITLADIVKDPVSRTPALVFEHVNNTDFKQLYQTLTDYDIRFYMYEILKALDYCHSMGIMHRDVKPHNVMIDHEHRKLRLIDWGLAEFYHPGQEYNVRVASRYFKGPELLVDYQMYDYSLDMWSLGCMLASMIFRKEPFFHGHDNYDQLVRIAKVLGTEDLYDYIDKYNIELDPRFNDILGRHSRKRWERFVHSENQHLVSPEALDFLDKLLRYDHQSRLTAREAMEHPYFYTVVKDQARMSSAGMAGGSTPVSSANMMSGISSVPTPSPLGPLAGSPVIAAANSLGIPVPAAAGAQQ

For the molecule `Brc1c(I)c(I)c2[nH]cnc2c1I` [iodinated benzimidazole, 3a], the Ki (in general, a measure of affinity in units of concentration, obtained from inhibition or displacement) is 100 nM.

Source of the values: BindingDB's records for doi:10.1016/j.bmc.2009.08.047 (University of Padova, 2009).
